This experiment deals with TNF-alpha release in THP-1 cells. Put plainly: LPS-induced TNF-alpha release in THP-1 cells. The following applies: Homo sapiens, THP-1, LPS-stimulated THP-1 cells; read-out: 50% inhibition in the LPS-induced TNF-alpha release in THP-1 cells assay at concentrations within the range. The format is cell-based. The method, then:
The effects of compounds on TNF-alpha production by lipopolysaccharide (LPS)-stimulated […] monocytes were examined as follows.
Undifferentiated THP-1 cells were maintained in RPMI 1640 with Glutamax I containing β-mercaptoethananol (50 μM) and foetal calf serum (FCS-10%) at densities of about 1×10^6 cells per ml. For incubations without and with test reagents, cells were seeded at the indicated densities under serum-deprived (1% FCS) conditions. Compounds were dissolved in dimethylsulfoxide (DMSO-100%) and incubated with the cells to give a fmal DMSO concentration of 0.3%. Control and untreated cell samples were incubated with DMSO (0.3%).
THP-1 cells (1×10 ^6 cells/ml, total volume 150 μl) in culture medium were incubated for 1 hour (5% CO2, 37° C.) with fresh medium containing compounds or vehicle (0.1-0.3% dimethylsulfoxide). LPS (20 μg/ml) was then added to the cells and the incubation continued for a fuirther 18 hours. Cell supernatants were removed into 96 well plates for storage at −20° C.
TNF-alpha concentrations in cell supernatants were quantified by sandwich ELISA. Briefly, ELISA plates were coated overnight with 2 μg/ml of mouse anti-human TNF-alpha antibody in bicarbonate buffer (pH 9.9). After washing the wells with wash buffer (0.05% (v/v) Tween in PBS)and blocking unoccupied sites (1% BSA in wash buffer), monocyte supernatant samples or human recombinant TNF-alpha standards were added into the corresponding wells of the ELISA plate at 1:10 dilution. Biotinylated rabbit polyclonal anti-human TNF-alpha antibody (3 μg/ml) was used as the second antibody and streptavidin-horseradish peroxidase was used as the detection antibody. The peroxidase substrate is 3,3′,5,5′-tetramethylbenzidine (TMB) in the presence of hydrogen peroxide.
TNFα concentrations in supernatants from control and LPS-stimulated monocyte incubations were calculated by interpolation from a standard (log/log) curve (0.125-16 ng/ml) fitted by Excel Fit using the Activity Base software. Compounds were tested within the concentration range of 1×10^−9M to 1×10^−6M.
Take `Cc1ccc(-n2nc(C(C)(C)C)cc2NC(=O)Nc2cccc(CC3CCN(C(=O)Cc4cccs4)CC3)c2)cc1` [Compound A189, 1-(5-tert-Butyl-2-p-tolyl-2H-pyrazol-3-yl)-3-{3-[1-(2-thiophen-2-yl-acetyl)-piperidin-4-ylmethyl]-phenyl}-urea]: the IC50 was 10 to 500 nM.
As for `COc1cccc(CC(=O)N2CCC(Cc3ccc(NC(=O)Nc4cc(C(C)(C)C)nn4-c4ccc(C)cc4)cc3)CC2)c1` [Compound A288, 1-(5-tert-Butyl-2-p-tolyl-2H-pyrazol-3-yl)-3-(4-{1-[2-(3-methoxy-phenyl)-acetyl]-piperidin-4-ylmethyl}-phenyl)-urea], the IC50 was 10 to 500 nM.
To `Cc1ccc(-n2nc(C(C)(C)C)cc2NC(=O)Nc2cccc(CC3CCN(C(=O)Cc4ccc5c(c4)OCO5)CC3)c2)cc1` [Compound A70, 1-{3-[1-(2-Benzo[1,3]dioxol-5-yl-acetyl)-piperidin-4-ylmethyl]-phenyl}-3-(5-tert-butyl-2-p-tolyl-2H-pyrazol-3-yl)-urea] belongs 10 to 500 nM.
To `Cc1ccc(-n2nc(C(C)(C)C)cc2NC(=O)Nc2ccc(CC3CCN(C(=O)C4=Cc5occc5CC4)CC3)cc2)cc1` [Compound A1642, 1-(5-tert-Butyl-2-p-tolyl-2H-pyrazol-3-yl)-3-{4-[1-(4,5-dihydro-benzofuran-6-carbonyl)-piperidin-4-ylmethyl]-phenyl}-urea] belongs 10 to 500 nM; to `Cc1ccc(-n2nc(C(C)(C)C)cc2NC(=O)Nc2cccc(CC3CC4CCC(C3)N4C(=O)Cc3ccccc3F)c2)cc1` (stereo not drawn) [Compound A761, 1-(5-tert-Butyl-2-p-tolyl-2H-pyrazol-3-yl)-3-(3-{8-[2-(2-fluoro-phenyl)-acetyl]-8-aza-bicyclo[3.2.1]oct-3-ylmethyl}-phenyl)-urea], 10 to 500 nM; to `Cc1ccc(-n2nc(C(C)(C)C)cc2NC(=O)Nc2ccc(CC3CCN(C(=O)c4ccc(N)c(OC(F)(F)F)c4)CC3)cc2)cc1` [Compound A309, 1-{4-[1-(4-Amino-3-trifluoromethoxy-benzoyl)-piperidin-4-ylmethyl]-phenyl}-3-(5-tert-butyl-2-p-tolyl-2H-pyrazol-3-yl)-urea], 10 to 500 nM.
Then `Cc1ccc(-n2nc(C(C)(C)C)cc2NC(=O)Nc2ccc(CC3CCN(C(=O)c4cc5ccccc5o4)CC3)cc2)cc1` [Compound A232, 1-{4-[1-(Benzofuran-2-carbonyl)-piperidin-4-ylmethyl]-phenyl}-3-(5-tert-butyl-2-p-tolyl-2H-pyrazol-3-yl)-urea], with 10 to 500 nM; and `Cc1ccc(-n2nc(C(C)(C)C)cc2NC(=O)Nc2ccc(CC3CCN(C(=O)c4cc5cnccc5nc4C)CC3)cc2)cc1` [Compound A243, 1-(5-tert-Butyl-2-p-tolyl-2H-pyrazol-3-yl)-3-{4-[1-(2-methyl-[1,6]naphthyridine-3-carbonyl)-piperidin-4-ylmethyl]-phenyl}-urea], with 10 to 500 nM; and `Cc1ccc(-n2nc(C(C)(C)C)cc2NC(=O)Nc2ccc(CC3CCN(C(=O)c4ccccn4)CC3)cc2)cc1` [Compound A380, 1-(5-tert-Butyl-2-p-tolyl-2H-pyrazol-3-yl)-3-{4-[1-(pyridine-2-carbonyl)-piperidin-4-ylmethyl]-phenyl}-urea], with 10 to 500 nM.
In the case of `Cc1ccc(-n2nc(C(C)(C)C)cc2NC(=O)Nc2cccc(CC3CCN(C(=O)C4=Cc5sccc5CC4)CC3)c2)cc1` [Compound A102, 1-(5-tert-Butyl-2-p-tolyl-2H-pyrazol-3-yl)-3-{3-[1-(4,5-dihydro-benzo[b]thiophene-6-carbonyl)-piperidin-4-ylmethyl]-phenyl}-urea], the IC50 lay within 10 to 500 nM.
To `Cc1ccc(-n2nc(C(C)(C)C)cc2NC(=O)Nc2ccc(CC3CCN(C(=O)c4ccc(-c5cnco5)cc4)CC3)cc2)cc1` [Compound A301, 1-(5-tert-Butyl-2-p-tolyl-2H-pyrazol-3-yl)-3-{4-[1-(4-oxazol-5-yl-benzoyl)-piperidin-4-ylmethyl]-phenyl}-urea] belongs 10 to 500 nM; to `Cc1ccc(-n2nc(C(C)(C)C)cc2NC(=O)Nc2ccc(CC3CCN(C(=O)c4cnc5ccccc5n4)CC3)cc2)cc1` [Compound A257, 1-(5-tert-Butyl-2-p-tolyl-2H-pyrazol-3-yl)-3-{4-[1-(quinoxaline-2-carbonyl)-piperidin-4-ylmethyl]-phenyl}-urea], 10 to 500 nM.
To `Cc1ccc(-n2nc(C(C)(C)C)cc2NC(=O)Nc2cccc(CC3CC4CCC(C3)N4C(=O)Cc3ccc(F)c(F)c3)c2)cc1` (stereo not drawn) [Compound A719, 1-(5-tert-Butyl-2-p-tolyl-2H-pyrazol-3-yl)-3-(3-{8-[2-(3,4-difluoro-phenyl)-acetyl]-8-aza-bicyclo[3.2.1]oct-3-ylmethyl}-phenyl)-urea] belongs 10 to 500 nM; to `Cc1ccc(-n2nc(C(C)(C)C)cc2NC(=O)Nc2ccc(CC3CCN(C(=O)c4ccc5ncsc5c4)CC3)cc2)cc1` [Compound A338, 1-{4-[1-(Benzothiazole-6-carbonyl)-piperidin-4-ylmethyl]-phenyl}-3-(5-tert-butyl-2-p-tolyl-2H-pyrazol-3-yl)-urea], 10 to 500 nM.
To `Cc1ccc(-n2nc(C(C)(C)C)cc2NC(=O)Nc2cccc(CC3CCN(C(=O)c4cccc(C(C)C#N)c4)CC3)c2)cc1` (stereo not drawn) [Compound A79, 1-(5-tert-Butyl-2-p-tolyl-2H-pyrazol-3-yl)-3-(3-{1-[3-(cyano-methyl-methyl)-benzoyl]-piperidin-4-ylmethyl}-phenyl)-urea] belongs 10 to 500 nM.
Consider `Cc1ccc(-n2nc(C(C)(C)C)cc2NC(=O)Nc2cccc(CC3CCN(C(=O)c4ccc5cnccc5n4)CC3)c2)cc1` [Compound A7, 1-(5-tert-Butyl-2-p-tolyl-2H-pyrazol-3-yl)-3-{3-[1-([1,6]naphthyridine-2-carbonyl)-piperidin-4-ylmethyl]-phenyl}-urea], for which the IC50 was 10 to 500 nM.
Then `Cc1ccc(-n2nc(C(C)(C)C)cc2NC(=O)Nc2cccc(CC3CCN(C(=O)c4cccnc4N)CC3)c2)cc1` [Compound A39, 1-{3-[1-(2-Amino-pyridine-3-carbonyl)-piperidin-4-ylmethyl]-phenyl}-3-(5-tert-butyl-2-p-tolyl-2H-pyrazol-3-yl)-urea], with 10 to 500 nM.
To `Cc1ccc(-n2nc(C(C)(C)C)cc2NC(=O)Nc2cccc(CC3CCN(C(=O)c4ccc(N)nc4)CC3)c2)cc1` [Compound A144, 1-{3-[1-(6-Amino-pyridine-3-carbonyl)-piperidin-4-ylmethyl]-phenyl}-3-(5-tert-butyl-2-p-tolyl-2H-pyrazol-3-yl)-urea] belongs 10 to 500 nM; to `Cc1ccc(-n2nc(C(C)(C)C)cc2NC(=O)Nc2ccc(CC3CCN(C(=O)Cc4ccccc4F)CC3)cc2)cc1` [Compound A236, 1-(5-tert-Butyl-2-p-tolyl-2H-pyrazol-3-yl)-3-(4-{1-[2-(2-fluoro-phenyl)-acetyl]-piperidin-4-ylmethyl}-phenyl)-urea], 10 to 500 nM; to `Cc1ccc(-n2nc(C(C)(C)C)cc2NC(=O)Nc2ccc(CC3CCN(C(=O)c4ccc(S(C)(=O)=O)cc4Cl)CC3)cc2)cc1` [Compound A233, 1-(5-tert-Butyl-2-p-tolyl-2H-pyrazol-3-yl)-3-{4-[1-(2-chloro-4-methanesulfonyl-benzoyl)-piperidin-4-ylmethyl]-phenyl}-urea], 10 to 500 nM.
Then `COc1ccccc1CC(=O)N1C2CCC1CC(Cc1ccc(NC(=O)Nc3cc(C(C)(C)C)nn3-c3ccc(C)cc3)cc1)C2` (stereo not drawn) [Compound A1404, 1-(5-tert-Butyl-2-p-tolyl-2H-pyrazol-3-yl)-3-(4-{8-[2-(2-methoxy-phenyl)-acetyl]-8-aza-bicyclo[3.2.1]oct-3-ylmethyl}-phenyl)-urea], with 10 to 500 nM; and `Cc1ccc(-n2nc(C(C)(C)C)cc2NC(=O)Nc2ccc(CC3CCN(C(=O)c4cccnc4C)CC3)cc2)cc1` [Compound A251, 1-(5-tert-Butyl-2-p-tolyl-2H-pyrazol-3-yl)-3-{4-[1-(2-methyl-pyridine-3-carbonyl)-piperidin-4-ylmethyl]-phenyl}-urea], with 10 to 500 nM.
For `Cc1ccc(-n2nc(C(C)(C)C)cc2NC(=O)Nc2ccc(CC3CCN(C(=O)C4CCCO4)CC3)cc2)cc1` (stereo not drawn) [Compound A258, 1-(5-tert-Butyl-2-p-tolyl-2H-pyrazol-3-yl)-3-{4-[1-(tetrahydro-furan-2-carbonyl)-piperidin-4-ylmethyl]-phenyl}-urea], the IC50 was 10 to 500 nM.
To `CO[C@H](C(=O)N1CCC(Cc2ccc(NC(=O)Nc3cc(C(C)(C)C)nn3-c3ccc(C)cc3)cc2)CC1)c1ccccc1` [Compound A193, 1-(5-tert-Butyl-2-p-tolyl-2H-pyrazol-3-yl)-3-{4-[1-((S)-2-methoxy-2-phenyl-acetyl)-piperidin-4-ylmethyl]-phenyl}-urea] belongs 10 to 500 nM.

The values are drawn from patent US7541368B2, “Pyrazoles as inhibitors of tumor necrosis factor” (Aventis Pharmaceuticals Inc., priority 2003, dated 2009).
